The supplement of paper PMC10307832

Columns and labels:
Experiment in all cases: relative viability (nuclei count vs DMSO), 5 days (fraction); higher = more cells survive
[1] = compound: C1CSC2=C(C(=O)N1)SC3=C2C=C(C=C3)O [kb NB 142-70] + CC(=O)Nc1cccc(-n2c(=O)n(C3CC3)c(=O)c3c(Nc4ccc(I)cc4F)n(C)c(=O)c(C)c32)c1 [Trametinib] (partner 0.02 µM)
Outline: (§1)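 Nuclei were stained with Hoechst during a one-step fixation (final 0.05% Triton X-100, 1% formaldehyde, 1 ug/ml Hoechst) carried out 5 days after dosing, then counted on 4× images. The cells, lung cancer lines in 1536-well plates, had been dosed by pin tool the day after seeding with one drug alone or a fixed anchor-drug dose plus five library-drug doses (not always all listed) in √10 steps. Relative viability is the nuclei count in treated wells divided by that in vehicle wells, and each value is the median of duplicate plates.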

[2] = compound: NCC(=O)Nc1ccc(-n2nc(C(F)(F)F)cc2-c2ccc3c(ccc4ccccc43)c2)cc1
Outline: (§2)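 Five library-drug doses, separated by factors of √10, were pinned into 1536-well plates holding lung cancer cell lines after an overnight stay at 37 °C. Cells were fixed, permeabilised and Hoechst-stained in one step after 5 days without medium change, then imaged at 4×. Viability compares treated-well with vehicle-well nuclei, counted in MetaXpress, as a median across plates. Passing plates had control CV below 25% and at least one doubling.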

kb NB 142-70 = compound: C1CSC2=C(C(=O)N1)SC3=C2C=C(C=C3)O [kb NB 142-70]
Outline: as §2

[3] = compound: NCC(=O)Nc1ccc(-n2nc(C(F)(F)F)cc2-c2ccc3c(ccc4ccccc43)c2)cc1 + CC1(C)CCC(c2ccc(Cl)cc2)=C(CN2CCN(c3ccc(C(=O)NS(=O)(=O)c4ccc(N[C@H](CCN5CCOCC5)CSc5ccccc5)c(S(=O)(=O)C(F)(F)F)c4)cc3)CC2)C1 [Navitoclax] (partner 0.5 µM)
Outline: as §1

Cell Line | relative viability ([1]; first compound 0.1 µM) | relative viability ([1]; first compound 1 µM) | relative viability ([1]; first compound 3.162 µM) | relative viability ([2]; 0.02 µM) | relative viability ([2]; 0.06325 µM) | relative viability ([2]; 0.2 µM) | relative viability ([2]; 0.6325 µM) | relative viability ([2]; 2 µM) | relative viability (kb NB 142-70; 0.1 µM) | relative viability (kb NB 142-70; 1 µM) | relative viability (kb NB 142-70; 3.162 µM) | relative viability ([3]; first compound 0.02 µM) | relative viability ([3]; first compound 0.06325 µM) | relative viability ([3]; first compound 0.2 µM) | relative viability ([3]; first compound 0.6325 µM) | relative viability ([3]; first compound 2 µM)
NCI-H1648 | 0.459 | 0.551 | 0.417 | 0.751 | 0.939 | 0.9 | 0.989 | 1.11 | 0.789 | 0.925 | 0.748 | – | – | – | – | –
SK-MES-1 | 0.547 | 0.631 | 0.714 | 1.04 | 1.01 | 1.06 | 1.01 | 1.03 | 1.01 | 1.13 | 0.734 | 1.31 | 1.2 | 1.29 | 1.2 | 1.16
HCC-366 | 0.321 | 0.274 | 0.232 | 1.01 | 1.07 | 1 | 1.01 | 0.934 | 1.01 | 0.976 | 0.927 | 1.15 | 1.04 | 1.02 | 1.03 | 1.16
201T | 0.687 | 0.727 | 0.752 | 0.892 | 1.01 | 0.98 | 0.989 | 1.01 | 1.01 | 0.966 | 1.02 | 1.26 | 1.18 | 1.24 | 1.25 | 1.22
HCC-827 | 0.539 | 0.53 | 0.395 | 1.03 | 1.05 | 0.987 | 1.02 | 1.1 | 1.07 | 1.03 | 0.971 | 0.992 | 1.04 | 1.06 | 1.06 | 1.01
NCI-H647 | 0.505 | 0.51 | 0.597 | 0.934 | 1.03 | 1.07 | 0.943 | 0.897 | 1.01 | 1.03 | 0.99 | 1.02 | 1.02 | 1.23 | 1.03 | 1.01
NCI-H2023 | 0.52 | 0.559 | 0.566 | 0.952 | 1.06 | 0.957 | 1.06 | 0.922 | 1.07 | 0.946 | 0.642 | 1.05 | 1.12 | 1.01 | 1 | 1.01
NCI-H520 | 0.69 | 0.618 | 0.386 | 1.01 | 1.04 | 1.1 | 0.933 | 1.05 | 0.985 | 0.884 | 0.544 | 0.979 | 1.17 | 1.34 | 1.05 | 1.08
RERF-LC-KJ | 0.914 | 0.928 | 0.805 | 1.05 | 1.01 | 0.993 | 1.01 | 1 | 0.988 | 1.04 | 0.921 | 1.04 | 1.24 | 1.08 | 0.715 | 0.842
A-427 | 0.841 | 0.764 | 0.726 | 0.766 | 1.06 | 0.998 | 0.994 | 1.03 | 1.04 | 1 | 0.969 | 0.798 | 0.956 | 0.972 | 0.95 | 0.959
NCI-H441 | 0.473 | 0.383 | 0.287 | 0.977 | 1.04 | 1.28 | 0.947 | 0.956 | 0.975 | 0.967 | 0.637 | 0.521 | 0.577 | 0.654 | 0.627 | 0.539
NCI-H1703 | – | – | – | 1.01 | 0.816 | 0.972 | 0.889 | 0.812 | 0.959 | 0.973 | 1.23 | 1.07 | 1.06 | 1.35 | 1 | 1.51
NCI-H1792 | 0.478 | 0.567 | 0.579 | 1.05 | 0.812 | 0.875 | 0.95 | 0.911 | 0.928 | 0.937 | 0.915 | 0.694 | 0.722 | 0.617 | 0.693 | 0.617
Calu-6 | – | – | – | 0.962 | 1.05 | 1.03 | 1 | 0.977 | 1.04 | 0.996 | 0.614 | 0.885 | 0.812 | 1.09 | 0.844 | 0.878
SK-LU-1 | 0.486 | 0.548 | 0.27 | 0.949 | 1.1 | 1.2 | 1.01 | 1.07 | 0.994 | 0.982 | 0.664 | 0.852 | 0.784 | 1.27 | 0.909 | 0.878
PC-3 [JPC-3] | 0.685 | 0.726 | 0.643 | 0.996 | 1.08 | 1.01 | 1.02 | 1.14 | 1 | 1.07 | 1.05 | 0.765 | 0.842 | 0.718 | 0.84 | 0.79
EMC-BAC-2 | 0.876 | 0.917 | 0.941 | 0.918 | 1.01 | 1.05 | 0.931 | 1 | 1.08 | 0.972 | 0.632 | 1.14 | 1.19 | 1.26 | 1.17 | 1.13
LK-2 | 0.814 | 0.651 | 0.729 | 0.923 | 1.05 | 0.935 | 1.06 | 0.909 | 1.01 | 0.855 | 0.685 | 1.02 | 0.862 | 0.961 | 0.853 | 0.757
NCI-H2126 | 0.593 | 0.534 | 0.473 | 0.981 | 1.04 | 1.04 | 0.993 | 0.997 | 0.985 | 0.974 | 0.989 | 0.866 | 0.865 | 0.851 | 0.876 | 0.852

Cell Line | relative viability ([1]; first compound 0.1 µM) | relative viability ([1]; first compound 1 µM) | relative viability ([1]; first compound 3.162 µM) | relative viability ([2]; 0.02 µM) | relative viability ([2]; 0.06325 µM) | relative viability ([2]; 0.2 µM) | relative viability ([2]; 0.6325 µM) | relative viability ([2]; 2 µM) | relative viability (kb NB 142-70; 0.1 µM) | relative viability (kb NB 142-70; 1 µM) | relative viability (kb NB 142-70; 3.162 µM) | relative viability ([3]; first compound 0.02 µM) | relative viability ([3]; first compound 0.06325 µM) | relative viability ([3]; first compound 0.2 µM) | relative viability ([3]; first compound 0.6325 µM) | relative viability ([3]; first compound 2 µM)
NCI-H3122 | 0.229 | 0.225 | 0.274 | 1.01 | 1.02 | 1.01 | 1.01 | 1 | 0.962 | 0.982 | 0.969 | 1.04 | 1.01 | 1.03 | 1.01 | 0.984
NCI-H1975 | 0.407 | 0.339 | 0.248 | 0.91 | 0.887 | 1.03 | 0.972 | 1.03 | 0.902 | 0.982 | 0.656 | 1.04 | 1.1 | 1.2 | 1.11 | 0.997
NCI-H1944 | 0.417 | 0.444 | 0.442 | 0.822 | 0.973 | 0.966 | 0.965 | 0.899 | 1.08 | 0.978 | 1.07 | 1.06 | 1.08 | 1.05 | 1.04 | 1.07
LU99A | 0.559 | 0.598 | 0.467 | 0.864 | 0.915 | 0.987 | 0.908 | 0.967 | 0.94 | 0.816 | 0.637 | 0.756 | 0.799 | 0.87 | 0.891 | 0.824
SW 1573 | 0.541 | 0.475 | 0.418 | 0.94 | 1.01 | 1.03 | 0.971 | 0.877 | 1.02 | 0.84 | 0.535 | 1.03 | 0.969 | 0.867 | 0.905 | 0.942
NCI-H1299 | – | – | – | 0.993 | 0.982 | 1.02 | 0.992 | 1 | 0.977 | 1.06 | 1.1 | 1.02 | 1.06 | 1.09 | 1.04 | 1.07
LCLC-103H | 0.672 | 0.654 | 0.803 | 0.957 | 1.07 | 0.963 | 0.979 | 0.966 | 1.03 | 0.984 | 1.03 | – | – | – | – | –
ABC-1 | – | – | – | 0.914 | 0.926 | – | 0.996 | 0.86 | 0.984 | 0.985 | 0.494 | – | – | – | – | –
NCI-H650 | 0.939 | 1.22 | 0.895 | 0.866 | 0.977 | 0.981 | 0.866 | 1.02 | 1.02 | 0.906 | 0.825 | – | – | – | – | –
SW 900 | 0.73 | 1.05 | 0.682 | 0.717 | 0.941 | 0.856 | 0.784 | 0.814 | 0.864 | 1.02 | 0.744 | – | – | – | – | –
NCI-H661 | 0.532 | 0.578 | 0.567 | 1.03 | 0.96 | 0.973 | 0.963 | 1.02 | 0.969 | 0.934 | 0.919 | – | – | – | – | –
NCI-H1563 | – | – | – | 0.992 | 0.954 | 0.997 | 1.02 | 0.968 | 1.04 | 1.02 | 1 | – | – | – | – | –
A549 | – | – | – | 1.03 | 0.987 | 1.01 | 0.949 | 0.915 | 0.96 | 0.957 | 0.689 | 1.24 | 1.19 | 1.24 | 1.17 | 0.7
NCI-H2342 | 0.804 | 0.857 | 0.903 | 0.93 | 1.01 | 0.988 | 0.986 | 0.911 | 0.897 | 0.972 | 0.912 | – | – | – | – | –
NCI-H1623 | – | – | – | 1.05 | 1.02 | 0.943 | 0.923 | 1.01 | 0.98 | 1.01 | 0.951 | – | – | – | – | –
NCI-H522 | 0.799 | 0.617 | 0.566 | 0.886 | 0.978 | 0.922 | 0.96 | 0.925 | 1.04 | 0.784 | 0.635 | – | – | – | – | –
IA-LM | – | – | – | 1.01 | 1.03 | 1.02 | 1.08 | 0.996 | 0.818 | 1.05 | 1.06 | 0.814 | 0.808 | 0.898 | 0.86 | 0.827
NCI-H358 | 0.117 | 0.103 | 0.105 | 0.965 | 0.993 | 0.925 | 0.939 | 0.94 | 0.943 | 0.725 | 0.137 | – | – | – | – | –
EBC-1 | – | – | – | 1.01 | 1.03 | 1.07 | 1.02 | 1.01 | 1.01 | 1 | 0.643 | 0.451 | 0.427 | 0.554 | 0.456 | 0.435
